# Measurements as given in US20240287080A1 (IDEAYA Biosciences Inc., priority 2021, published 2024).
# Biological target: T1, Pol theta (1-899) (Homo sapiens, UniProt O75417)
# T1 construct: Pol theta (1-899) (5 nM) in assay buffer
# Test: Pol theta ATPase activity, NADH oxidation-coupled enzymatic assay (ATPase NADH coupling: Standard Screening: hPolQ)
# Type: biochemical
# Conditions: Pol theta (1-899) 5 nM, NADH oxidation-coupled ATPase assay; compounds of Table 3
# Summary of the method: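 NADH-coupled ATPase readout: 5 nM Pol theta (1-899) preincubated 15 min with 10-point compound series in Tris pH 7.80, KCl, MgCl2, DTT, BSA, Tween, glycerol, then 100 μM ATP, 300 nM 50-mer poly-dT ssDNA, NADH, PEP, LDH and PK added (stock levels). A340 followed 60 min; slopes fit four-parameter for IC50.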
# T1 sequence (O75417 1-899): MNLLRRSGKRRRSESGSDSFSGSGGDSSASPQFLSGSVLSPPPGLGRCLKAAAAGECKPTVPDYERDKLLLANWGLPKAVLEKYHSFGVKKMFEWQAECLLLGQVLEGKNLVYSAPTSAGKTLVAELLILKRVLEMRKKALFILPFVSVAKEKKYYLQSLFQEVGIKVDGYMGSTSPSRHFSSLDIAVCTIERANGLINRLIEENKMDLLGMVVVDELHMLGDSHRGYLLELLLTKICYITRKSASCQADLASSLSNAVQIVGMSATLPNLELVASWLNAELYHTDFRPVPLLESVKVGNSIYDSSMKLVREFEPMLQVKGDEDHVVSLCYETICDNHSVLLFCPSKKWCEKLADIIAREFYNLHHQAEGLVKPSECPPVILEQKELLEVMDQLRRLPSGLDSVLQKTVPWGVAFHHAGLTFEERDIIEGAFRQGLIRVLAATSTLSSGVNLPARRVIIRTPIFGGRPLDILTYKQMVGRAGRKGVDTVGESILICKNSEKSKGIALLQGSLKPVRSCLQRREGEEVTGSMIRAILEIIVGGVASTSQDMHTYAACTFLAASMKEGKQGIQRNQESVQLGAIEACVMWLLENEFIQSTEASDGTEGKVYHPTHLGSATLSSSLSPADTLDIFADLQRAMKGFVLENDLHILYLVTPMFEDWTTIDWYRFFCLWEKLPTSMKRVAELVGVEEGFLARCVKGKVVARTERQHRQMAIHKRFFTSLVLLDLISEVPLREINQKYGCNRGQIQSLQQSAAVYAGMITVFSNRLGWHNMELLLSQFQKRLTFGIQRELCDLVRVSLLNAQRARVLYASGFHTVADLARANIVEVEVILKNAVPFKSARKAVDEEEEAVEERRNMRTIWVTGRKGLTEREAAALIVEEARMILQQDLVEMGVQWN
row,SMILES,IC50 [nM]
1,"COc1nnc(NC(=O)c2cc(C#N)ncc2-c2cc(Cl)ncc2OC)s1 [Example 290, 2′-chloro-6-cyano-5′-methoxy-N-(5-methoxy-1,3,4-thiadiazol-2-yl)-[3,4′-bipyridine]-4-carboxamide]",200 to 500
2,"COc1nnc(NC(=O)c2cnc(C)cc2-c2ccc(S(C)(=O)=O)nc2)s1 [Example 455, N-(5-methoxy-1,3,4-thiadiazol-2-yl)-6′-methyl-6-(methylsulfonyl)-[3,4′-bipyridine]-3′-carboxamide]",1000 to 10000
3,"COc1cnc(Br)cc1-c1cc(C)ncc1C(=O)Nc1nnc(O[C@@H]2CCC[C@@H](O)C2)s1 [Example 284, 2′-bromo-N-(5-(((1R,3R)-3-hydroxycyclohexyl)oxy)-1,3,4-thiadiazol-2-yl)-5′-methoxy-6-methyl-[4,4′-bipyridine]-3-carboxamide]",≤ 200
4,"COc1nnc(NC(=O)c2cnc(C)cc2-c2ccc(N3CCCCC3)cc2)s1 [Example 476, N-(5-methoxy-1,3,4-thiadiazol-2-yl)-6-methyl-4-[4-(piperidin-1-yl)phenyl]pyridine-3-carboxamide]",1000 to 10000
5,"COc1nnc(NC(=O)c2cnc(C)cc2-c2cc(C#N)cc(OC(F)(F)F)c2)s1 [Example 327, 4-[3-cyano-5-(trifluoromethoxy)phenyl]-N-(5-methoxy-1,3,4-thiadiazol-2-yl)-6-methylpyridine-3-carboxamide]",1000 to 10000
6,"COc1nnc(NC(=O)c2cnc(C)cc2-c2cnn3c2CCCC3)s1 [Example 395, N-(5-methoxy-1,3,4-thiadiazol-2-yl)-6-methyl-4-{4H,5H,6H,7H-pyrazolo[1,5-a]pyridin-3-yl}pyridine-3-carboxamide]",1000 to 10000
7,"COc1nnc(NC(=O)c2cnc(C)cc2-c2cc(C3CC3)nn2C2CCCCO2)s1 (stereo not shown) [Example 350, 4-(3-cyclopropyl-1-(tetrahydro-2H-pyran-2-yl)-1H-pyrazol-5-yl)-N-(5-methoxy-1,3,4-thiadiazol-2-yl)-6-methylnicotinamide]",1000 to 10000
8,"COc1nnc(NC(=O)c2cc(OC(C)C)ncc2-c2cc(Cl)ncc2OC)s1 [Example 273, 2′-chloro-6-isopropoxy-5′-methoxy-N-(5-methoxy-1,3,4-thiadiazol-2-yl)-[3,4′-bipyridine]-4-carboxamide]",200 to 500
9,"COc1nnc(NC(=O)c2cnc(C)cc2-c2cc(Cl)cc3c2OCCN3)s1 [Example 320, 4-(6-chloro-3,4-dihydro-2H-benzo[b][1,4]oxazin-8-yl)-N-(5-methoxy-1,3,4-thiadiazol-2-yl)-6-methylnicotinamide]",≤ 200
10,"COc1nnc(NC(=O)c2cnc(C)cc2-c2cscc2C#N)s1 [Example 442, 4-(4-cyanothiophen-3-yl)-N-(5-methoxy-1,3,4-thiadiazol-2-yl)-6-methylpyridine-3-carboxamide]",1000 to 10000
11,"COc1cc(C)c(-c2cc(C)ncc2C(=O)Nc2nnc(OC)s2)cn1 [Example 463, 6-methoxy-N-(5-methoxy-1,3,4-thiadiazol-2-yl)-4,6′-dimethyl-[3,4′-bipyridine]-3′-carboxamide]",1000 to 10000
12,"COc1nnc(NC(=O)c2cc(OC)c(C)cc2-c2cc(Cl)ncc2OC)s1 [Example 301, 2-(2-chloro-5-methoxypyridin-4-yl)-5-methoxy-N-(5-methoxy-1,3,4-thiadiazol-2-yl)-4-methylbenzamide]",≤ 200

# Same assay, conditions: Table 4; Pol theta (1-899) 5 nM, ATP, dT50 ssDNA
row,SMILES,IC50 [nM]
1,"COc1nnc(NC(=O)c2cnc(C)cc2-c2cc3[nH]cnc3cc2OC)s1 [Example 71, N-(5-methoxy-1,3,4-thiadiazol-2-yl)-4-(5-methoxy-1H-benzo(d)imidazol-6-yl)-6-methylnicotinamide]",1000 to 10000
2,"COc1cccc(F)c1-c1cc(C)ncc1C(=O)Nc1nnc(OCC(C)(C)C(F)(F)F)s1 [Example 4, 4-(2-fluoro-6-methoxyphenyl)-6-methyl-N-(5-(3,3,3-trifluoro-2,2-dimethylpropoxy)-1,3,4-thiadiazol-2-yl)pyridine-3-carboxamide]",200 to 500
3,"COc1cnc(Cl)c(F)c1-c1cc(C)ncc1C(=O)Nc1nnc(OC2COC2)s1 [Example 60, 2′-chloro-3′-fluoro-5′-methoxy-6-methyl-N-(5-(oxetan-3-yloxy)-1,3,4-thiadiazol-2-yl)-(4,4′-bipyridine)-3-carboxamide]",≤ 200
4,"COc1cnc(Cl)cc1-c1cc(C)ncc1C(=O)Nc1nnc(OC2CC2)s1 [Example 7, 2′-chloro-N-(5-cyclopropoxy-1,3,4-thiadiazol-2-yl)-5′-methoxy-6-methyl-(4,4′-bipyridine)-3-carboxamide]",≤ 200
5,"COc1cnc(Cl)cc1-c1cc(C)ncc1C(=O)Nc1nnc(OCC(F)F)s1 [Example 18, 2′-chloro-N-(5-(2,2-difluoroethoxy)-1,3,4-thiadiazol-2-yl)-5′-methoxy-6-methyl-(4,4′-bipyridine)-3-carboxamide]",≤ 200
6,"COc1nnc(NC(=O)c2cnc(C)cc2-c2cc(C(F)F)ncc2OC)s1 [Example 70, 2′-(difluoromethyl)-5′-methoxy-N-(5-methoxy-1,3,4-thiadiazol-2-yl)-6-methyl-(4,4′-bipyridine)-3-carboxamide]",≤ 200

# Same assay, conditions: Table 5; Pol theta (1-899) 5 nM, ATP, dT50 ssDNA
row,SMILES,IC50 [nM]
1,"COc1cnc(Cl)cc1-c1cc(C)ncc1C(=O)Nc1nnc(O[C@H]2CC[C@@]3(CCO3)CC2)s1 (single isomer, unassigned) [Example 186, N-(5-(((4r,7r)-1-oxaspiro(3.5)nonan-7-yl)oxy)-1,3,4-thiadiazol-2-yl)-2′-chloro-5′-methoxy-6-methyl-(4,4′-bipyridine)-3-carboxamide]",≤ 200
2,"COc1cnc(C)c(F)c1-c1cc(C)ncc1C(=O)Nc1nnc(O[C@H]2CC[C@](C)(O)CC2)s1 (single isomer, unassigned) [Example 224, 3′-fluoro-N-(5-(((1r,4r)-4-hydroxy-4-methylcyclohexyl)oxy)-1,3,4-thiadiazol-2-yl)-5′-methoxy-2′,6-dimethyl-(4,4′-bipyridine)-3-carboxamide]",≤ 200
3,"COc1nnc(NC(=O)c2cnc(C)cc2-c2cc(Cl)c([S+](C)[O-])cc2OC)s1 (stereo not shown) [Example 231, 4-(5-chloro-2-methoxy-4-(methylsulfinyl)phenyl)-N-(5-methoxy-1,3,4-thiadiazol-2-yl)-6-methylnicotinamide]",≤ 200
4,"Cc1cc(-c2cc(Br)ncc2OC(F)F)c(C(=O)Nc2nnc(O[C@H]3CC[C@H](O)CC3)s2)cn1 [Example 205, 2′-bromo-5′-(difluoromethoxy)-N-(5-(((1r,4r)-4-hydroxycyclohexyl)oxy)-1,3,4-thiadiazol-2-yl)-6-methyl-(4,4′-bipyridine)-3-carboxamide]",≤ 200
5,"COc1cnc(Cl)cc1-c1cc(C)ncc1C(=O)Nc1nnc(O[C@H]2CC[C@@H]([C@@H](C)O)CC2)s1 (single isomer, unassigned) [Example 212]",≤ 200
6,"COc1cnc(Cl)cc1-c1cc(C)ncc1C(=O)Nc1nnc(OC2CC(C)(O)C2)s1 (mixture of isomers) [Example 176, 2′-chloro-N-(5-(3-hydroxy-3-methylcyclobutoxy)-1,3,4-thiadiazol-2-yl)-5′-methoxy-6-methyl-(4,4′-bipyridine)-3-carboxamide]",≤ 200
7,"Cc1cc(-c2cc(Cl)ncc2OC(F)F)c(C(=O)Nc2nnc(O[C@H]3CCOC3)s2)cn1 [Example 83, (S)-2′-chloro-5′-(difluoromethoxy)-6-methyl-N-(5-((tetrahydrofuran-3-yl)oxy)-1,3,4-thiadiazol-2-yl)-(4,4′-bipyridine)-3-carboxamide]",≤ 200
